In patent publication US20260092073A1, “NOVEL COMPOUNDS” (Hoffmann-La Roche Inc., priority 2023, published 2026):
pIC50: −log10 of the molar value.

Key:
NLRP3 [1] = biological target: T1, NLRP3 (Homo sapiens, UniProt Q96P20); experiment: Human whole blood IL-1β release assay; format: cell-based; design: Human whole blood in Li-heparin tubes was obtained from healthy donors; from tissue; host or cells: human whole blood from healthy donors; details: LPS, nigericin 10 μM, IL-1β by AlphaLisa
Protocol: For systemic delivery, the ability to inhibit NLRP3 when the compounds are present within the bloodstream is of great importance. For this reason, the NLRP3 inhibitory activity of a number of compounds in human whole blood was investigated in accordance with the following protocol.
Human whole blood in Li-heparin tubes was obtained from healthy donors from a volunteer donor panel.
Plate out 80 μl of whole blood containing […] of LPS in 96-well, clear bottom cell culture plate (Corning #3585)
Add 10 μl compound (8 points half-log dilution with 10 μM top dose) or vehicle (DMSO 0.1% FAC) to the appropriate wells
(§1) Incubate for 3 hours at 37° C., 5% CO2
Add 10 μl nigericin (Sigma #N7143) (10 μM FAC) to all wells
(§2) Incubate for 1 hr at 37° C., 5% CO2
At the end of the incubation period, spin plates at 300 xg for 5 mins to pellet cells and remove 20 μl of supernatant and add to 96-well v-bottom plates for IL-1β analysis (note: these plates containing the supernatants can be stored at −80° C. to be analysed at a later date)
IL-1β was measured according to the manufacturer protocol (Perkin Elmer-AlphaLisa IL-1 Kit AL220F-5000)
(§3) IC50 data is fitted to a non-linear regression equation (log inhibitor vs response-variable slope 4-parameters)

NLRP3 [2] = biological target: T1, NLRP3; experiment: THP-1 cells pyroptosis assay; format: cell-based; design: Seed THP-1 cells (25,000 cells/well) containing 1.0 μg/ml LPS; host or cells: THP-1 cells, LPS-primed, nigericin-stimulated; details: LPS 1.0 μg/ml, nigericin 5 μM, resazurin readout
Description: It is well established that the activation of NLRP3 leads to cell pyroptosis and this feature plays an important part in the manifestation of clinical disease (Yan-gang Liu et al., Cell Death & Disease, 2017, 8(2), e2579; Alexander Wree et al., Hepatology, 2014, 59(3), 898-910; Alex Baldwin et al., Journal of Medicinal Chemistry, 2016, 59(5), 1691-1710; Ema Ozaki et al., Journal of Inflammation Research, 2015, 8, 15-27; Zhen Xie & Gang Zhao, Neuroimmunology Neuroinflammation, 2014, 1(2), 60-65; Mattia Cocco et al., Journal of Medicinal Chemistry, 2014, 57(24), 10366-10382; T. Satoh et al., Cell Death & Disease, 2013, 4, e644). Therefore, it is anticipated that inhibitors of NLRP3 will block pyroptosis, as well as the release of pro-inflammatory cytokines (e.g. […]) from the cell.
THP-1 cells (ATCC #TIB-202) were grown in RPMI containing L-glutamine (Gibco #11835) supplemented with 1 mM sodium pyruvate (Sigma #S8636) and penicillin (100 units/ml)/streptomycin (0.1 mg/ml) (Sigma #P4333) in 10% Fetal Bovine Serum (FBS) (Sigma #F0804). The cells were routinely passaged and grown to confluency (˜10^6 cells/ml). On the day of the experiment, THP-1 cells were harvested and resuspended into RPMI medium (without FBS). The cells were then counted and viability (>90%) checked by Trypan blue (Sigma #T8154). Appropriate dilutions were made to give a concentration of 625,000 cells/ml. To this diluted cell solution was added LPS (Sigma #L4524) to give a […] Final Assay Concentration (FAC). 40 μl of the final preparation was aliquoted into each well of a 96-well plate. The plate thus prepared was used for compound screening.
The following method step-by-step assay was followed for compound screening.
Seed THP-1 cells (25,000 cells/well) containing 1.0 μg/ml LPS in 40 μl of RPMI medium (without FBS) in 96-well, black walled, clear bottom cell culture plates coated with poly-D-lysine (VWR #734-0317)
Add 5 μl compound (8 points half-log dilution, with 10 μM top dose) or vehicle (DMSO 0.1% FAC) to the appropriate wells
as §1
Add 5 μl nigericin (Sigma #N7143) (FAC 5 μM) to all wells
as §2
At the end of the incubation period, spin plates at 300 xg for 3 mins and remove supernatant
Then add 50 μl of resazurin (Sigma #R7017) (FAC 100 μM resazurin in RPMI medium without FBS) and incubate plates for a further 1-2 hours at 37° C. and 5% CO2
Plates were read in an Envision reader at Ex 560 nm and Em 590 nm
as §3

T1 sequence (Q96P20 whole entry): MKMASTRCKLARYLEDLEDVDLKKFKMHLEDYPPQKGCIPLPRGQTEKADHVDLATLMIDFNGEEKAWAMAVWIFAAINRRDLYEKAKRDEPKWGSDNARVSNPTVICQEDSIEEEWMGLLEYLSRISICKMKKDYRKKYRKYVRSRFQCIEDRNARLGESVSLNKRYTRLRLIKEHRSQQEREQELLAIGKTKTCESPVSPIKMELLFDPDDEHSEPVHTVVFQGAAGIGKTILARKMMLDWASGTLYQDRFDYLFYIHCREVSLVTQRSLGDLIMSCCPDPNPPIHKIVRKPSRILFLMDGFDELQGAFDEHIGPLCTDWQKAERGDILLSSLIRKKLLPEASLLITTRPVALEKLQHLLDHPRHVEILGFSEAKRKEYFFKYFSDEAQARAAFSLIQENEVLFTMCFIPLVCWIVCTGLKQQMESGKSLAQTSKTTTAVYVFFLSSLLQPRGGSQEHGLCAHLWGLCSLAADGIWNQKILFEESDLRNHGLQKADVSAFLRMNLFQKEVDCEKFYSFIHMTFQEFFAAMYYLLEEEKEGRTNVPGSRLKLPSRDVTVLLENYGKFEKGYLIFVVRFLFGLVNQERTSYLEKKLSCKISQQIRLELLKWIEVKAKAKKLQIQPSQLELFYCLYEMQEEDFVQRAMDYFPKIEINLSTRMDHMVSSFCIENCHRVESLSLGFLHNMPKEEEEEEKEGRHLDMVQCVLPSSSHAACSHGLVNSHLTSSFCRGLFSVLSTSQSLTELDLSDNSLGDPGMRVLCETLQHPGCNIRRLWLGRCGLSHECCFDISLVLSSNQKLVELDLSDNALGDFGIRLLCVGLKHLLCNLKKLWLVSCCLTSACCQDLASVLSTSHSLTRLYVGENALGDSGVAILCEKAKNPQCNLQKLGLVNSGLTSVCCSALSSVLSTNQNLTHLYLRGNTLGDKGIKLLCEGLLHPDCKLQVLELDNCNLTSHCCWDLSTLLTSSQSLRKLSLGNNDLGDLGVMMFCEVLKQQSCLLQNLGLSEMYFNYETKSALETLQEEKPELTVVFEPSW

| SMILES | pIC50 (NLRP3 [1]) | pIC50 (NLRP3 [2]) |
| --- | --- | --- |
| COc1cc(-c2c(C)cc3c(c2O)CCC3)nc2nc(N[C@@H]3CCCN(CCO)C3)oc12 [Example 19, 5-[2-[[(3R)-1-(2-Hydroxyethyl)-3-piperidyl]amino]-7-methoxy-oxazolo[4,5-b]pyridin-5-yl]-6-methyl-indan-4-ol] | – | 8.40 |
| CCN1C[C@@H](O)C[C@@H](Nc2nc3nc(-c4c(C)cc(C#N)cc4O)cc(OC)c3o2)C1 [Example 30, 4-[2-[[(3R,5S)-1-Ethyl-5-hydroxy-3-piperidyl]amino]-7-methoxy-oxazolo[4,5-b]pyridin-5-yl]-3-hydroxy-5-methyl-benzonitrile] | 7.32 | 7.89 |
| CCN1C[C@@H](O)C[C@@H](Nc2nc3nc(-c4c(C)cc(C#N)cc4O)cnc3o2)C1 [Example 2, 4-[2-[[(3R,5S)-1-Ethyl-5-hydroxy-3-piperidyl]amino]oxazolo[4,5-b]pyrazin-5-yl]-3-hydroxy-5-methyl-benzonitrile;2,2,2-trifluoroacetic Acid] | 7.71 | 8.37 |
| CCN1C[C@@H](O)C[C@@H](Nc2nc3nc(-c4c(C)cc5c(c4O)CCO5)cnc3o2)C1 [Example 25, (3S,5R)-1-Ethyl-5-[[5-(4-hydroxy-6-methyl-2,3-dihydrobenzofuran-5-yl)oxazolo[4,5-b]pyrazin-2-yl]amino]piperidin-3-ol] | 7.80 | 8.70 |
| Cc1cc(C(F)(F)F)cc(O)c1-c1ccc2oc(N[C@@H]3C[C@H](O)CN(CCCC(=O)O)C3)nc2n1 [Example 5, 4-[(3S,5R)-3-Hydroxy-5-[[5-[2-hydroxy-6-methyl-4-(trifluoromethyl)phenyl]oxazolo[4,5-b]pyridin-2-yl]amino]-1-piperidyl]butanoic Acid] | 6.36 | 7.29 |
| Cc1cc(C#N)cc(O)c1-c1cnc2oc(N[C@@H]3C[C@H](O)CN(C)C3)nc2n1 [Example 7, 3-Hydroxy-4-[2-[[(3R,5S)-5-hydroxy-1-methyl-3-piperidyl]amino]oxazolo[4,5-b]pyrazin-5-yl]-5-methyl-benzonitrile;2,2,2-trifluoroacetic Acid] | 7.77 | 8.00 |
| COCc1cc2c(c(O)c1-c1cc(OC)c3oc(N[C@@H]4CCCN(CCO)C4)nc3n1)CCO2 [Example 21, 5-[2-[[(3R)-1-(2-Hydroxyethyl)-3-piperidyl]amino]-7-methoxy-oxazolo[4,5-b]pyridin-5-yl]-6-(methoxymethyl)-2,3-dihydrobenzofuran-4-ol] | – | 8.05 |
| CCN1C[C@@H](O)C[C@@H](Nc2nc3nc(-c4c(O)cc(C#N)cc4COC)cnc3o2)C1 [Example 23, 4-[2-[[(3R,5S)-1-Ethyl-5-hydroxy-3-piperidyl]amino]oxazolo[4,5-b]pyrazin-5-yl]-3-hydroxy-5-(methoxymethyl)benzonitrile;2,2,2-trifluoroacetic Acid] | 7.47 | 7.36 |
| Cc1cc2c(c(O)c1-c1cnc3oc(N[C@@H]4CCCN(CCO)C4)nc3n1)CCO2 [Example 13, 5-[2-[[(3R)-1-(2-Hydroxyethyl)-3-piperidyl]amino]oxazolo[4,5-b]pyrazin-5-yl]-6-methyl-2,3-dihydrobenzofuran-4-ol] | 7.72 | 9.10 |
| Cc1cc(C(F)(F)F)cc(O)c1-c1ccc2oc(N[C@@H]3C[C@H](O)CN(CCO)C3)nc2n1 [Example 6, (3S,5R)-1-(2-Hydroxyethyl)-5-[[5-[2-hydroxy-6-methyl-4-(trifluoromethyl)phenyl]oxazolo[4,5-b]pyridin-2-yl]amino]piperidin-3-ol] | 7.02 | 7.92 |
| Cc1cc2c(c(O)c1-c1cnc3oc(N[C@@H]4C[C@H](O)CN(CCO)C4)nc3n1)CCO2 [Example 24, (3S,5R)-1-(2-Hydroxyethyl)-5-[[5-(4-hydroxy-6-methyl-2,3-dihydrobenzofuran-5-yl)oxazolo[4,5-b]pyrazin-2-yl]amino]piperidin-3-ol] | 7.28 | 7.72 |
| CCN1C[C@@H](O)C[C@@H](Nc2nc3nc(-c4c(C)cc(C#N)cc4O)cc(F)c3o2)C1 [Example 27, 4-[2-[[(3R,5S)-1-Ethyl-5-hydroxy-3-piperidyl]amino]-7-fluoro-oxazolo[4,5-b]pyridin-5-yl]-3-hydroxy-5-methyl-benzonitrile] | 7.02 | 8.22 |

Continued, values first:

| pIC50 (NLRP3 [1]) | pIC50 (NLRP3 [2]) | SMILES |
| --- | --- | --- |
| 7.45 | 7.55 | COCc1cc(C#N)cc(O)c1-c1ccc2oc(N[C@@H]3CCCN(CCO)C3)nc2n1 [Example 3, 3-Hydroxy-4-[2-[[(3R)-1-(2-hydroxyethyl)-3-piperidyl]amino]oxazolo[4,5-b]pyridin-5-yl]-5-(methoxymethyl)benzonitrile] |
| 7.07 | 7.64 | Cc1cc(C#N)cc(O)c1-c1ccc2oc(N[C@@H]3CCCN(CCCc4ncco4)C3)nc2n1 [Example 28, 3-Hydroxy-5-methyl-4-[2-[[(3R)-1-(3-oxazol-2-ylpropyl)-3-piperidyl]amino]oxazolo[4,5-b]pyridin-5-yl]benzonitrile] |
| 7.55 | 7.96 | COc1cc(-c2c(C)cc(C#N)cc2O)nc2nc(N[C@@H]3CCCN(CCO)C3)oc12 [Example 8, 3-Hydroxy-4-[2-[[(3R)-1-(2-hydroxyethyl)-3-piperidyl]amino]-7-methoxy-oxazolo[4,5-b]pyridin-5-yl]-5-methyl-benzonitrile;2,2,2-trifluoroacetic Acid] |
| 7.66 | 8.10 | COc1cc(-c2c(C)cc(C#N)cc2O)nc2nc(N[C@@H]3CCCN(CCO)C3)oc12 [Example 16, 3-Hydroxy-4-[2-[[(3R)-1-(2-hydroxyethyl)-3-piperidyl]amino]-7-methoxy-oxazolo[4,5-b]pyridin-5-yl]-5-methyl-benzonitrile] |
| 6.91 | 8.15 | Cc1cc(C#N)cc(O)c1-c1cc(F)c2oc(N[C@@H]3CCCN(CCO)C3)nc2n1 [Example 29, 4-[7-Fluoro-2-[[(3R)-1-(2-hydroxyethyl)-3-piperidyl]amino]oxazolo[4,5-b]pyridin-5-yl]-3-hydroxy-5-methyl-benzonitrile] |
| 7.08 | 7.35 | Cc1cc(C#N)cc(O)c1-c1ccc2oc(N[C@H]3CNC[C@@H](O)C3)nc2n1 [Example 9, 3-Hydroxy-4-[2-[[(3R,5S)-5-hydroxy-3-piperidyl]amino]oxazolo[4,5-b]pyridin-5-yl]-5-methyl-benzonitrile] |
| 7.74 | 8.52 | CCN1C[C@@H](O)C[C@@H](Nc2nc3nc(-c4c(C)cc(C#N)cc4O)cnc3o2)C1 [Example 17, 4-[2-[[(3R,5S)-1-Ethyl-5-hydroxy-3-piperidyl]amino]oxazolo[4,5-b]pyrazin-5-yl]-3-hydroxy-5-methyl-benzonitrile] |
| 7.62 | 8.48 | Cc1cc(C#N)cc(O)c1-c1cnc2oc(N[C@@H]3CCCN(CCO)C3)nc2n1 [Example 1, 3-Hydroxy-4-[2-[[(3R)-1-(2-hydroxyethyl)-3-piperidyl]amino]oxazolo[4,5-b]pyrazin-5-yl]-5-methyl-benzonitrile;2,2,2-trifluoroacetic Acid] |
